Reference: PMC9223658, “New Borane-Protected Derivatives of α-Aminophosphonous Acid as Anti-Osteosarcoma Agents: ADME Analysis and Molecular Modeling, In Vitro Studies on Anti-Cancer Activities, and NEP Inhibition as a Possible Mechanism of Anti-Proliferative Activity” (International Journal of Molecular Sciences, 2022)

Legend:
HOS cells = assay: Invasiveness, BME-coated transwell assay; type: cell-based, human; conditions: 24 h
Method: The invasiveness of the HOS osteosarcoma cells was assessed after treatment with compound 4 at concentrations of 12.5, 25 and 50 µM. The assay was carried out using the Trevigen’sCultureCoat®24-well Cell Invasion Assay (R&D Systems, Minneapolis, […], USA) equipped with a Basement Membrane Extract (BME)-coated membrane (8 µm) of transwell inserts. The assay was performed according to the manufacturer’s instruction and as in the transwell migration assay described above.

[1] = tested on: active caspase 9 in HOS cells; assay: Active caspase 9 assay (flow cytometry); type: cell-based, human; conditions: 72 h
Method: The level of active executor caspase 3 and initiator caspase 9 was determined to examine whether compounds 4 and 6 induced apoptosis in the HOS and Saos-2 cells. The influence of compounds 4 and 6 on HOS and Saos-2 were determined with the caspase 3 assay, whereas the influence of compound 6 on the HOS cells was investigated with the caspase 9 assay. In both assays, the osteosarcoma cells (3.0 × 10^5 cells/mL) were seeded in 6-well plates. The cells were treated with compounds 4 and 6 at concentrations of 12.5, 25, 50 µM and 20, 40, 80 µM as well as 15, 30, 60 µM and 21.25, 42.5, 85 µM for 72 h, respectively. The solutions of the compounds were prepared in a medium with 2% FBS. […] Next, floating and adherent cells were harvested and subjected to further steps of the staining procedures according to the manufacturer’s instruction. The level of active caspase 3 and caspase 9 was determined using the PE Active Caspase-3 Apoptosis Kit (BD Pharmingen^TM) and the CaspaTag^TM Caspase-9 in Situ Assay Kit (Millipore, Darmstadt, Germany), respectively. The number of stained cells (active caspase 3- or 9-positive cells) was measured using FACS Calibur, and the obtained data were analyzed using Cell Quest Pro Version 6.0. for the Macintosh operating system (BD Pharmingen™). The presented results were calculated as a percent of cells with either active caspase 3 or 9 among all the analyzed cells.

SMILES	decrease in cell invasiveness (HOS cells; 12.5 µM)	decrease in cell invasiveness (HOS cells; 25 µM) [%]	decrease in cell invasiveness (HOS cells; 50 µM) [%]	increase in active caspase 9 vs untreated cells ([1]; 40 µM)	increase in active caspase 9 vs untreated cells ([1]; 80 µM) [%]
[BH3-][P+](OC(C)C)(OC(C)C)C(Nc1ccc(Br)cc1)c1ccc([N+](=O)[O-])cc1 (centres unmarked) [Compound 4, [1-(N-p-bromophenylamino)]-1-(p-nitrophenyl)methylphosphonousacid-borane diisopropyl ester]	approx. 53%	~70	~82		
[BH3-][P+](OC(C)C)(OC(C)C)C(Nc1ccc(C)cc1)c1ccccc1 (centres unmarked) [Compound 6, [1-(N-p-tolylamino)]-1-phenylmethylphosphonous acid-borane diisopropyl ester]				approx. 4%	~6
